The text below walks through data of patent US7049321B2, “Methods and pharmaceutical compositions for treatment of central and peripheral nervous system disorders and compounds useful therefor” (Israel Institute for Biological Research, priority 2002, dated 2006).

Structures are written as SMILES. “Also recorded” adds a separate entry of the source. Like-named read-outs stand apart in the source and are kept apart here. Where only a bound is given, the exact number is not on record here.

One data set concerns ischemic rats. The data set is described as follows: Working memory (MWM) in ischemic rats. It counts as in vivo, Sprague Dawley rats. The conditions noted are these: 0.5 mg/kg, po, chronic. Here is the method: Transient ischemia in rats was induced by a modification of the ischemia model (Voll et et al, Stroke, 20: 1700–1706, 1989). This was done by a bilateral carotid artery occlusion in Sprague Dawley rats: (42 male, 3 months old, weighing 270–340 g) combined with reduction in blood pressure induced by sodium nitropruside. Ischemia was induced in 21 rats whereas the other 21 rats served as sham controls. Under pentobarbital anasthesia (30 mg/kg, ip), sodium nitropruside 4.8 mg/kg/hr) was infused through a cannula implanted in the tail vein, for a period of 25 min. Five min after the initiation of the infusion, at the time when mean blood pressure was maintained at 30–60 mmHg (intial levels ˜110 mm Hg) both carotid arteries were clamped for 20 min. Immediately afterwards 1.8 mEq sodium bicarbonate solution was administerd ip in order to minimize systemic acidosis. The sham operated rats were anesthetized as the ischemic rats and were infused with saline. […] In rats subjected to ischemia, a mortality of about 30% was recorded within 24 hr after surgery. […]
The ratio of escape latency (REL) and the ratio of path length (RPL) were calculated by the ratio of block no 2/block no 1 for each parameter. […] REL and RPL were analyzed by a 3-way ANOVA (2×2×3), with one repeated variable (weeks) and two non-repeated variables (Operation-ischemia/sham-operated and Treatment AF150(S)/DDW).

Another data set deals with T1, M2 mAChR (Homo sapiens, UniProt P08172).
T1 construct: expressed in transfected cells; host or cells: 'modified cell cultures' giving a Ca increase; modification not described
T1 sequence (P08172 whole entry): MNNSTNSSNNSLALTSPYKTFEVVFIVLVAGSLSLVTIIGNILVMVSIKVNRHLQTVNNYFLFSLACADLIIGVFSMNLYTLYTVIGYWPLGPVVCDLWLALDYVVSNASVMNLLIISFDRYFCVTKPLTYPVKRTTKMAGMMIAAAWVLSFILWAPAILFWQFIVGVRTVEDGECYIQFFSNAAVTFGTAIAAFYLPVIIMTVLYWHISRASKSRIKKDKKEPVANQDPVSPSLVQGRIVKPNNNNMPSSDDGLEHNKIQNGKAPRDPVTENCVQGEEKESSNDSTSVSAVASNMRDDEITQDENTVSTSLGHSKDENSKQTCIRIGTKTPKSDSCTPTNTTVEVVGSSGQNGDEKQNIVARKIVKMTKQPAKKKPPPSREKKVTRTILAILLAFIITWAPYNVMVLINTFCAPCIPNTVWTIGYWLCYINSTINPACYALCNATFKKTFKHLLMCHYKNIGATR
Description: Intracellular Ca increase in modified cell cultures, M2. It counts as cell-based. The settings on record: 10^−9–10^−3M.

The target of a further data set is T2, M5 mAChR (Homo sapiens, UniProt P08912).
T2 construct: expressed in transfected cells
T2 sequence (P08912 whole entry): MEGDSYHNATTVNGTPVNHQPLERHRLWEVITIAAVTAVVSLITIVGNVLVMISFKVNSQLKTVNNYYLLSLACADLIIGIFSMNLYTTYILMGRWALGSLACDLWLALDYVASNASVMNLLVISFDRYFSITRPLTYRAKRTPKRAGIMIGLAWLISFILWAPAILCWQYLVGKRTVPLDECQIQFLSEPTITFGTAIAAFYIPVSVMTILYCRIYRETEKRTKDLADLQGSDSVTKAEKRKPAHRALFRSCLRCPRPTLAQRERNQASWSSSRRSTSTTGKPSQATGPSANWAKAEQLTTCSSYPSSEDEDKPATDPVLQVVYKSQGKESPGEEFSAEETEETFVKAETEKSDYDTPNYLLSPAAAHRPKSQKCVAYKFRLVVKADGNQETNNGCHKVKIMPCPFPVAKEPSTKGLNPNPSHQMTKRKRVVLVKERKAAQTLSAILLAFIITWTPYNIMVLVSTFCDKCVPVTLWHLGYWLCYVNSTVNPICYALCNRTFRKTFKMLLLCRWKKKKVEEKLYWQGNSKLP
The data set is described as follows: Arachidonic acid (AA) release, M5. In kind it is cell-based.

A further data set has as its target hERG-encoded channel (Homo sapiens, UniProt Q12809). Description: Astemizole (HERG channel) binding assay. Here is the method:
• 1. Astemizole (human ether-a-go-go related gene (HERG) Channel) Binding Assay. […] Isolated Guinea Pig Right Atrium (atrial fibrillation). […] Effects of AF292 (dose 5 mg/kg orally) on cardiac electrophysiological, cardio-haemodynamic in instrumented, awake dogs. Healthy trained and chronically instrumented female Beagle dogs of varying age and ranging in body weight from 9.4 to 12 kg, were used for recording of the cardiovascular parameters: heart rate, diastolic and systolic blood pressure, pressure rate product, LV dp/dt max, LV dp/dt max/pd, LV dp/dt min, cardiac output, stroke volume, systemic vascular resistance and the ECG parameters (PQ-, QRS-, QT-, QTcBazett-(QTcB), QTcFridericia-(QTcF) and QTcVan de Water-(QTcVdW) interval duration and QT-dispersion. During the last 18 hours prior to the experiments, the dogs had no access to food. Water was available ad libitum. At the beginning of each experiment, control values of the various parameters were recorded for at least 30 min. Thereafter, 5 mg/kg of AF292 (n=4) or the corresponding volume of the solvent (n=4) was administered orally by gavage. The various haemodynamic parameters were recorded continuously for 4 hours thereafter.

Another data set addresses CYP1A2 (Homo sapiens, UniProt P05177). The data set is described as follows: Cytochrome P450 inhibition, CYP1A2. It counts as in vitro ADME. The conditions noted are these: up to 10 μM. The procedure:
(§1) Cytochrome P450 activity can be an indicator for potential drug-drug interactions. AF292 was evaluated in a microtiter plate assay for P450 inhibition.

The target of a further data set is CYP2C19 (Homo sapiens, UniProt P33261). Description: Cytochrome P450 inhibition, CYP2C19. The conditions noted are these: up to 10 μM. It counts as in vitro ADME. The procedure:
as §1

A further data set concerns the target CPY2D6 (Homo sapiens, UniProt P10635). Description: Cytochrome P450 inhibition, CYP2D6. It counts as in vitro ADME. The conditions noted are these: up to 10 μM. The procedure: as §1
A further data set concerns the target M3 (human) (Homo sapiens, UniProt P20309). Description: PI hydrolysis in cells transfected with human M3. It counts as cell-based. More on the design: expressed in transfected cells.
The subject of data set [1] is Primary mixed rat cortical neurons infected with recombinant Semliki Forest virus encoding human APP695 or APP C99 or C111. Description: Aβ levels in vitro in infected cortical neurons. It counts as cell-based. The procedure:
The mechanism of Aβ modulation was tested using C99 (and C111) that are truncated constructs generated from APP. Unlike APP, C99/C111 are direct substrates for γ-secretase. With both constructs it is possible to directly assay for γ-secretase activity, while with APP this is not possible. Both constructs are—as compared to APP—inefficient substrates for α-secretase. Synergistc effects were also evaluated with CDX (methyl-β-cyclodextrin), an agent which extracts cholesterol from the plasma membrane. CDX inhibits also Aβ production. CDX-treated cells were treated in addition to the respective muscarinic agonist for 5 min to reduce the cholesterol content.

Another data set has as its target muscarinic receptor. The data set is described as follows: [3H]OXO-M competition binding. The conditions noted are these: rat cortex.
For data set [2], the target named is mAChR receptors, Rat Cortical (CTX) Membranes. It counts as binding. The settings on record: read-out: Ki, QNB.
Data set [3] deals with adrenergic, benzodiazepine, dopamine, GABA, glutamate, glycine, histamine, nicotinic, serotonin sites, ChAT, GAD, MAO-A, MAO-B. The data set is described as follows: Binding panel of other receptors and enzymes (AF267B).
The subject of another data set is cyclin D1. Description: Cyclin D1 expression in rat hippocampal neurons. It counts as cell-based. The conditions noted are these: against Aβ (5 μM)-induced decrease. The procedure: This study was performed in rat hippocampal primary cell cultures using the methods described by Garrido J L et al. (FASEB J 2002; 16:1982).
For data set [4] the following is noted: rat, in vivo, po.
Data set [5] is described as follows: Chronic oral toxicity up to 13 weeks, dog.

The term Ki denotes the dissociation constant of the complex between target and ligand, obtained from inhibition or displacement. The NOAEL is the highest tested level that showed no adverse finding.

Sequence of M3 (human) (P20309 whole entry): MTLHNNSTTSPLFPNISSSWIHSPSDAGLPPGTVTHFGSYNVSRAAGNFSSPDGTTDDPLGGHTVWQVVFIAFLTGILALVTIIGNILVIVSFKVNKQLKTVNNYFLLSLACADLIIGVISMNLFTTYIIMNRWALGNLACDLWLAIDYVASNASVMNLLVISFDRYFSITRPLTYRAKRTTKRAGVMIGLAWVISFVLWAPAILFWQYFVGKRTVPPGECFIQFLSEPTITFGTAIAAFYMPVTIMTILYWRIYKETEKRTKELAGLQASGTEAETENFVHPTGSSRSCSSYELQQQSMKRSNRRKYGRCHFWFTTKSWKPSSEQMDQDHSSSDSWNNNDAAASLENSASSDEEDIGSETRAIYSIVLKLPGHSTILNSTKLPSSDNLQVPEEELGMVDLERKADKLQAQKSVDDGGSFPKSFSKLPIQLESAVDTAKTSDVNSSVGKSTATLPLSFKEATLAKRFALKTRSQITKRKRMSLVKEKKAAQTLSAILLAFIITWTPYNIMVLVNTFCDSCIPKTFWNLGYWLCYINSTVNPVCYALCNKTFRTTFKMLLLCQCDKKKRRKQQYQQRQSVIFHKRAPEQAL
Sequence of CPY2D6 (P10635 whole entry): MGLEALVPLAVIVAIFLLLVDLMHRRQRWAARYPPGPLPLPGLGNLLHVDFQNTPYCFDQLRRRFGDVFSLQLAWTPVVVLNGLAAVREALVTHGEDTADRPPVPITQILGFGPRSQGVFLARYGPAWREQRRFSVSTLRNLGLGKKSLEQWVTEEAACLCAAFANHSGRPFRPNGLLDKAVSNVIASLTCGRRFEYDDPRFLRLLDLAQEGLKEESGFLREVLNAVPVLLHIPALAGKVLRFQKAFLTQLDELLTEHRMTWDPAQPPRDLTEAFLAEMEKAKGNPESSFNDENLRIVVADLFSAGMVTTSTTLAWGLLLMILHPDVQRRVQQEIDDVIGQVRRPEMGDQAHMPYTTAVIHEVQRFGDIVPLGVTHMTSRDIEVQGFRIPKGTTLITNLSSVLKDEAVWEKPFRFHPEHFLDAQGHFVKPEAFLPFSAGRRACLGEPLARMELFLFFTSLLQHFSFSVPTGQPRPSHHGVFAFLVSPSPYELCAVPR
Sequence of hERG-encoded channel (Q12809 whole entry): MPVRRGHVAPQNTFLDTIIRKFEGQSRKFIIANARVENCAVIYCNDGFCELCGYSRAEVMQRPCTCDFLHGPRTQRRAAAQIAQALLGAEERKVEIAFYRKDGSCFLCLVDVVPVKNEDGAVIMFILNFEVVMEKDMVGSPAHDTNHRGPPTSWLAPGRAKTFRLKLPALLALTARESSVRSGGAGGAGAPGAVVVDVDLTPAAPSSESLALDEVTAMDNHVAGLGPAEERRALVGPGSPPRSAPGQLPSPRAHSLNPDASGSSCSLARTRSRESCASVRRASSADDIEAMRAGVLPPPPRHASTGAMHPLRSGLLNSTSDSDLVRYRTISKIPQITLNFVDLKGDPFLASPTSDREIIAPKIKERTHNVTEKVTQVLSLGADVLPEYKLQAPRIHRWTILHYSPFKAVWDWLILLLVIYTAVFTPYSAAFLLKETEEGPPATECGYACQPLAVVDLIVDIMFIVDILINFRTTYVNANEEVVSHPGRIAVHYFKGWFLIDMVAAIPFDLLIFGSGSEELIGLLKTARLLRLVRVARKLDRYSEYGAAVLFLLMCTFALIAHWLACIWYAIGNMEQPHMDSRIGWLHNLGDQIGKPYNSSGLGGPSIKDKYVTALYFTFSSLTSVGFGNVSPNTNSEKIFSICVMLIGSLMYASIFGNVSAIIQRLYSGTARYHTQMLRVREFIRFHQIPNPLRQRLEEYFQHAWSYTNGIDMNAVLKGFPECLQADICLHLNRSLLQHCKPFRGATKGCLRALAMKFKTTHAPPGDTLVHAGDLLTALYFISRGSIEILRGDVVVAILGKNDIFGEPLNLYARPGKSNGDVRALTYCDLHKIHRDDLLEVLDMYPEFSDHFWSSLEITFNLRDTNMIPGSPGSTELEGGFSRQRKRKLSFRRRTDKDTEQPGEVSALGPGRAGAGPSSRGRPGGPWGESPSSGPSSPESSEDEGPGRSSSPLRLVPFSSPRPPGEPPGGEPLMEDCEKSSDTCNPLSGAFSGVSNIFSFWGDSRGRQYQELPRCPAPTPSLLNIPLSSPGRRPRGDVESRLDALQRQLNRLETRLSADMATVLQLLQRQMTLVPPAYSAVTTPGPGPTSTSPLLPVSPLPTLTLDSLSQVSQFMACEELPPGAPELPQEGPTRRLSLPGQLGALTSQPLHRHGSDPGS
Sequence of CYP2C19 (P33261 whole entry): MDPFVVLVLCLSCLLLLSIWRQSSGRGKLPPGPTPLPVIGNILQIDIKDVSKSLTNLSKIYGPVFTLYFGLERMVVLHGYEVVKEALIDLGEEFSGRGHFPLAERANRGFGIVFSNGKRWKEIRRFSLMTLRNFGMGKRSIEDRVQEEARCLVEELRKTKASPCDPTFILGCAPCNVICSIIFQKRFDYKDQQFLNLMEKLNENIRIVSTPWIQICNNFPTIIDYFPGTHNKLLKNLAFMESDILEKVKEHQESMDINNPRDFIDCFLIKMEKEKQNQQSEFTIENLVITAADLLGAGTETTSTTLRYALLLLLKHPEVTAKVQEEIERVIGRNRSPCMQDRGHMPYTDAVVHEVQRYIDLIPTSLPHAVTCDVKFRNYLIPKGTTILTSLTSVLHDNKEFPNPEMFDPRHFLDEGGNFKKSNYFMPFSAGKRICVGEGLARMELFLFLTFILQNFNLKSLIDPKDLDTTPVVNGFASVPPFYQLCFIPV
Sequence of CYP1A2 (P05177 whole entry): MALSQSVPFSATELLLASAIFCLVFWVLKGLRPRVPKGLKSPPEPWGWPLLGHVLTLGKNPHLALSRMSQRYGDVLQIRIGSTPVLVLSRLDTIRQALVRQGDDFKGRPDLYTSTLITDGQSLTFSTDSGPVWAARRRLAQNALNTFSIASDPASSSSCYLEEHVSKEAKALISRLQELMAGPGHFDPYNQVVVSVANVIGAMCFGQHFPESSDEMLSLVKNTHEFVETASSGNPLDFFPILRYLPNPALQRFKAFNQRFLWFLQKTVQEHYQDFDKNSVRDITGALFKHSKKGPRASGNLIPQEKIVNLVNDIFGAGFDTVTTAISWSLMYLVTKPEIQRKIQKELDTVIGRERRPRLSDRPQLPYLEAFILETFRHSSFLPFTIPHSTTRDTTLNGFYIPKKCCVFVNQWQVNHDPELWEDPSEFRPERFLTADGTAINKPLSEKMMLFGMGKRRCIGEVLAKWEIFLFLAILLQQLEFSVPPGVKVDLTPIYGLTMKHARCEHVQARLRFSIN

Consider `CC1=NCC2(CCN(C)CC2)S1` [AF150(S), 2,8-Dimethyl-1-thia-3,8-diaza-spiro[4.5]dec-2-ene], for which the “Working memory performance (REL and RPL)” value in the data set on ischemic rats is “significantly improved working memory performance”.

In the case of `CC[C@@H]1SC2(CCNCC2)NC1=O` [AF292, (S)-2-Ethyl-1-thia-4,8-diaza-spiro[4.5]decan-3-one], the “Agonist activity at M2” value at M2 mAChR is “inactive as an agonist; also recorded: M2 mAChR - no effects as agonist”. Moreover, the “AA release, M5 mAChR, agonist activity” value at M5 mAChR was “inactive as an agonist; also recorded: PI, AA: M5 mAChR - no effect as agonist”. The “[3H]-Astemizole binding inhibition” value on hERG-encoded channel was “inactive”. Also, the “Inhibition of CYP1A2” value at CYP1A2 is listed as “did not induce significant inhibition”. The “Inhibition of CYP2C19” value on CYP2C19 is given as “did not induce significant inhibition”. In addition, the “Inhibition of CPY2D6” value at CPY2D6 is recorded as “did not induce significant inhibition”. The “PI turnover vs. carbachol, M3” value on M3 (human) (human M3) is listed as “No activity; also recorded: PI., AA: M3 mAChR: Not active as agonist”. In addition, the Kb on M3 (human) (read-out: pKb, M3 antagonist (converted)) was 0.66 µM.

For the compound `CC[C@@H]1SC2(CCN(C)CC2)NC1=O` [AF267B, (S)-2-ethyl-8-methyl-1-thia-4,8-diaza-spiro[4.5]decan-3-one], in [1], the “Active concentration range, decrease of Aβ” value is “active in the μM range”; the “Potency in decreasing Aβ levels relative to AF150(S)” value was “at least 5 fold”; the “Reduction of release of Aβ-like fragments (3–4 Kda)” value was “approximately 50%”; the “γ secretase activity reduction” value came to 50%. In addition, the p3 fragment entry in data set [1] (1 mM) is reported as “complete loss”. For the same compound, in data set [1] (with CDX (5 mM), to undetectable Aβ levels), the “Decrease of Aβ together with CDX” value is listed as “synergistic effect”. For the same compound, the Ki on muscarinic receptor amounted to 1.62 ± 0.34 µM. In [2], the Ki is 49.6 ± 9 µM. Also, in data set [3], the Binding to panel result was “no binding at all”. In the data set with cyclin D1, the “cyclin D1, increase vs. control” value amounted to 50%. The “% of the compound found in the brain (Cmax brain/Cmax plasma)” value in data set [4] (female) is given as 16%. In addition, in data set [4] (male), the “% of the compound found in the brain (Cmax brain/Cmax plasma)” value was 25%. The compound further gave a no-observed-adverse-effect level (NOAEL) in [5] (beagle, dog, in vivo, po) of 6 to 9 mg/kg/day. Further, the “Dose at which effects are seen” value in data set [5] (dog) is over 9 mg/kg. Besides, the ECG changes result in data set [5] (up to 13 weeks oral) is listed as “no changes in the ECG”.
